Assay [1] addresses T1, Adenosine receptor A3 (Homo sapiens, UniProt P0DMS8).
T1 sequence (P0DMS8 whole entry): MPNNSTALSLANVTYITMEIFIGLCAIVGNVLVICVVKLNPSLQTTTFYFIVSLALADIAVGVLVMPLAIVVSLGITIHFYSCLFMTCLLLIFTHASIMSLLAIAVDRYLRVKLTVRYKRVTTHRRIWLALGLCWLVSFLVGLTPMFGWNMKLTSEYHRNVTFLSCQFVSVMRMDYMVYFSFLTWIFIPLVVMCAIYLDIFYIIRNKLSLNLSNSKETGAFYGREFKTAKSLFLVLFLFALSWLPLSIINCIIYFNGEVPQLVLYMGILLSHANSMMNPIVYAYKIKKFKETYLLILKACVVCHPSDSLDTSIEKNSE
Nature of the assay: Inhibition of [3H]NECA binding to human adenosine A3 receptor expressed in HeLa cells. Format: cell-based.

Assay [2] deals with T2, Adenosine receptor A2a (Homo sapiens, UniProt P29274).
Description: Potency against cAMP formation in CHO cells expressing recombinant human A2A receptor
The target in assay [3] is Adenosine receptor A2a (Rattus norvegicus, UniProt P30543).
Description: Efficacy against phenylephrine precontracted tissue relaxation in rat aorta
The target of assay [4] is T2, Adenosine receptor A2a. Nature of the assay: biochemical.
Description: Inhibition of [3H]ZM-241385 binding to human adenosine A2A receptor expressed in HeLa cells
Assay [5] is filed under the species Cavia porcellus. Nature of the assay: Concentration-Relaxation Studies was exerted on Guinea Pig Tracheal Rings Precontracted by Carbachol by the compound in presence of Adenosine antagonist CSC ( E-4 M). Format: functional, organism-based. As to conditions: Trachea.
The species named for assay [6] is Cavia porcellus. The assay is described as follows: Concentration-Relaxation Studies was exerted on Guinea Pig Tracheal Rings Precontracted by Carbachol by the compound in presence of Adenosine antagonist 8-PT ( E-4 M). The class given is functional, organism-based. As to conditions: Trachea.
The species named for assay [7] is Cavia porcellus. Nature of the assay: Concentration-Relaxation Studies was exerted on Guinea Pig Tracheal Rings Precontracted by Carbachol by the compound in presence of Adenosine antagonist DMPX ( E-4 M). The class given is functional, organism-based. To be noted: Trachea.
Assay [8] is filed under the species Cavia porcellus. The assay is described as follows: Concentration-Relaxation Studies was exerted on Guinea Pig Tracheal Rings Precontracted by Carbachol by the compound in presence of Adenosine antagonist Alloxazine ( E-4 M). Format: functional, organism-based. As to conditions: Trachea.
Assay [9] addresses T3, Adenosine receptor A1 (Homo sapiens, UniProt P30542).
T3 sequence (P30542 whole entry): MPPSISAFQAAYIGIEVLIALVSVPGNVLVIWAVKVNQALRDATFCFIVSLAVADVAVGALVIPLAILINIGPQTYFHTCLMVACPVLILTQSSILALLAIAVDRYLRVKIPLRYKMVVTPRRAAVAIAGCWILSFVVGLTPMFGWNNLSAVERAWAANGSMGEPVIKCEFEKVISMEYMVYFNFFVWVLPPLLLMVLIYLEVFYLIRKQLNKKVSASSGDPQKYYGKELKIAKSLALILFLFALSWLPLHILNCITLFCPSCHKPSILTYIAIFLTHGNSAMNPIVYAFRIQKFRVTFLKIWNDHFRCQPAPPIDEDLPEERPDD
The assay is described as follows: Inhibition of [3H]DPCPX binding to human adenosine A1 receptor expressed in CHO cells. Format: cell-based.

In assay [10] the target is T4, Adenosine receptor A2b (Homo sapiens, UniProt P29275).
T4 sequence (P29275 whole entry): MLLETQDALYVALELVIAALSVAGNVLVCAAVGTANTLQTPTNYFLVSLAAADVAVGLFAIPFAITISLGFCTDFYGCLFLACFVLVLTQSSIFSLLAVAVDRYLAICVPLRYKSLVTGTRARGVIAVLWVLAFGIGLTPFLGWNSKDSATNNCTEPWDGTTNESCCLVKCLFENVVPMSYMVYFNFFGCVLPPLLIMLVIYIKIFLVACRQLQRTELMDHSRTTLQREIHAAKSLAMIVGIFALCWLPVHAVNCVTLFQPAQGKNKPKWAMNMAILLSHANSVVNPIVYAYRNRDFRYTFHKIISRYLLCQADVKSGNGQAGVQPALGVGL
The assay is described as follows: Potency against cAMP formation in CHO cells expressing recombinant human A2B receptor. The class given is functional, cell-based.

Assay [11] deals with T4, Adenosine receptor A2b. Nature of the assay: Inhibition of [3H]DPCPX binding to human adenosine A2B receptor expressed in HEK293 cells. The class given is cell-based.
For assay [12], the target named is Adenosine receptor A2b (Cavia porcellus). Nature of the assay: Relative efficacy against phenylephrine precontracted tissue relaxation in Guinea pig aorta.
For assay [13], the system named is Adenosine receptor A2b (Cavia porcellus). Nature of the assay: Relative efficacy against phenylephrine precontracted tissue relaxation in Guinea pig aorta compared to NECA.

For orientation: Ki means the dissociation constant of the complex between target and ligand, obtained from inhibition or displacement. A word on the EC50: it is the concentration giving half of the maximal effect. As a reminder, the Emax is the size of the effect at its maximum, as opposed to the concentration needed.

T2 sequence (P29274 whole entry): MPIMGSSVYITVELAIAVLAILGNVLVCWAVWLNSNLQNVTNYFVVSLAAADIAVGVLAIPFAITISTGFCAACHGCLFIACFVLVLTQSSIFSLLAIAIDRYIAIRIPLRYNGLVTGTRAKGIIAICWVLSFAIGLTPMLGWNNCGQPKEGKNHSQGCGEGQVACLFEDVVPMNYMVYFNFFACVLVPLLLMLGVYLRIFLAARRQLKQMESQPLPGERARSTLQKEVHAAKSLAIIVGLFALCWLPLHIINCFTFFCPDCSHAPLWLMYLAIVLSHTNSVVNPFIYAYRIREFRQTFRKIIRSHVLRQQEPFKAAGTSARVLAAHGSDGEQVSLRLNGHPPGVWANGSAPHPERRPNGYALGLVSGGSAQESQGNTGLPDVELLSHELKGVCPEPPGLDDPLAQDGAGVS
Chain of Adenosine receptor A2a (Rattus norvegicus, UniProt P30543) (P30543 whole entry): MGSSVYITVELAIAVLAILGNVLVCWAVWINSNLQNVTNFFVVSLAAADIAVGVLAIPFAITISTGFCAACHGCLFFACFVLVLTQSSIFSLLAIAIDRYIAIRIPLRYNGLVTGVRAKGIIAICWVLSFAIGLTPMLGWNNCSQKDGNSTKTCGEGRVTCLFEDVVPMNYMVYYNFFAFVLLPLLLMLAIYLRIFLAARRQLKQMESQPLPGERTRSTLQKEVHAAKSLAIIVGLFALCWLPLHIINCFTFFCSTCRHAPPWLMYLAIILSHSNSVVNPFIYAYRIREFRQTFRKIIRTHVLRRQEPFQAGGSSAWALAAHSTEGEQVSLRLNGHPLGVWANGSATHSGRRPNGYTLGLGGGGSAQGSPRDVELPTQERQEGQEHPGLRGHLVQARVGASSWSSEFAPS

As for `CCn1nnc([C@H]2O[C@@H](n3cnc4c(N)nc(N[C@H](CO)Cc5ccc(O)cc5)nc43)[C@H](O)[C@@H]2O)n1`, the results for the Ki in [1] and in [4] were 140 nM and 5 nM, respectively. The EC50 in assay [2] stood at 8 nM; in assay [3] it was 2.9 nM.
`CCn1nnc([C@H]2O[C@@H](n3cnc4c(N)nc(N[C@H](CO)Cc5ccccc5)nc43)[C@H](O)[C@@H]2O)n1` [GW-328267]: the EC50 is 51000 nM in assay [5]; 64000 nM in [6]; 46000 nM in assay [7]; 88000 nM in assay [8]; 8.8 nM in [2]; 10 nM in [3]. Besides, the Ki worked out at 369 nM in [9] and 46 nM in assay [4].
For `CCn1nnc([C@H]2O[C@@H](n3cnc4c(N)nc(N[C@H](CO)Cc5ccc(Cl)cc5)nc43)[C@H](O)[C@@H]2O)n1`, the half-maximal effective concentration (EC50) in assay [10] worked out at 4700 nM; in assay [5] it was 17000 nM; in assay [8] it was 38000 nM; in [2], 97 nM. The Ki in assay [11] stood at 2720 nM; in assay [9], 670 nM; in [1], 288 nM; in assay [4] it was 270 nM.
For `CCNC(=O)[C@H]1O[C@@H](n2cnc3c(N)ncnc32)[C@H](O)[C@@H]1O` [NECA], the EC50 in assay [5] amounted to 84000 nM; in assay [6], 65000 nM; in [7], 77000 nM; in [8], 88000 nM.
As for `Nc1ncnc2c1ncn2[C@@H]1O[C@H](CO)[C@@H](O)[C@H]1O` [ADENOSINE], the EC50 in assay [5] is 570000 nM; in [6], 460000 nM; in [7] it was 340000 nM; in assay [8] it was 550000 nM.
Take `CCn1nnc([C@H]2O[C@@H](n3cnc4c(N)nc(N[C@H](CO)Cc5ccc(Br)cc5)nc43)[C@H](O)[C@@H]2O)n1`: the EC50 was 560 nM in assay [10], 1.6 nM in assay [2], 6.7 nM in [3] and 1300 nM in [12]. Moreover, the Ki was determined as 2260 nM in [11], 310 nM in assay [9], 83 nM in assay [1] and 5 nM in assay [4]. The Emax in [13] is 125%.
Turning to `CCn1nnc([C@H]2O[C@@H](n3cnc4c(N)nc(N[C@H](C)Cc5ccc(OC)cc5)nc43)[C@H](O)[C@@H]2O)n1`, the concentration giving a half-maximal response (EC50) in [5] came out at 26000 nM; in assay [7], 23000 nM; in assay [8], 15000 nM; in assay [2], 3 nM; in assay [3] it was 4 nM. Also, the Ki was determined as 356 nM in [9], 100 nM in assay [1] and 1 nM in assay [4].
Regarding `CCn1nnc([C@H]2O[C@@H](n3cnc4c(N)nc(N[C@H](CO)Cc5ccc([N+](=O)[O-])cc5)nc43)[C@H](O)[C@@H]2O)n1`, the results for the EC50 in assay [10] and in assay [2] were 1200 nM and 3.1 nM, respectively. Moreover, the Ki in assay [11] is 3660 nM; in assay [9] it was > 10000 nM; in assay [1] it was 400 nM; in [4] it was 48 nM.
Regarding `CCn1nnc([C@H]2O[C@@H](n3cnc4c(N)nc(N[C@H](CO)Cc5ccc(OC)cc5)nc43)[C@H](O)[C@@H]2O)n1`, the EC50 in [10] came to 680 nM; in [5] it was 22000 nM; in [7], 36000 nM; in assay [8], 36000 nM; in assay [2], 1.4 nM. For the same compound, the Ki in assay [11] is 1180 nM; in assay [9] it was > 10000 nM; in assay [1] it was 130 nM; in assay [4] it was 38 nM.

These data come from ChEMBL document CHEMBL1137202, “Synthesis and biological activity of new potential agonists for the human adenosine A2A receptor” (J Med Chem, 2004).
